Records with an inconclusive call do not appear. *1 amine or outer side, *2 acyl side, *3 side chain or, on linkers, in order; H or OH if unused. Where a SMILES comes first, the peptide text is derived from it. Bridges are numbered along the chain shown (N, C = ends). [ ]: non-standard residue; d: D form. The star is where a group is joined. X2 = CC(C)C(C)C(C(=O)[*:2])N(C)[*:1]; Picolinoyl(3-OH) = O=C(c1ncccc1O)*; NMePhg = CN[CH](C(=O)O)c1ccccc1; Hyp = O=C(O)[CH]1C[CH](O)CN1; Sar = CNCC(=O)O
Tested on: BDF1 mice, s.c. Lewis lung carcinoma, T/C %
Test: NCI In Vivo Anticancer Drug Screen. Data for tumor model Lewis Lung Carcinoma (subcutaneous) in B6D2F1 (BDF1) mice
Summary of the method: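 Antitumor effect in vivo is scored from survival or tumor burden, reported as treated relative to vehicle controls.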

`CC1CCC2(NC1)OC1CC3C4CCC5CC(OC6OC(CO)C(OC7OC(CO)C(O)C(OC8OCC(O)C(O)C8O)C7OC7OC(CO)C(O)C(O)C7O)C(O)C6O)CCC5(C)C4CCC3(C)C1C2C` (centres undefined) was tested, and the T/C (endpoint: mean tumor weight, dose: 5.0 mg/kg/injection, schedule: Q01DX011 (sc), vehicle: steriod suspending solution, higher = larger tumour) was 104 % of control, the T/C (endpoint: mean tumor weight, dose: 10.0 mg/kg/injection, schedule: Q01DX011 (sc), vehicle: steriod suspending solution, higher = larger tumour) was 77 % of control and the T/C (endpoint: mean tumor weight, dose: 20.0 mg/kg/injection, schedule: Q01DX011 (sc), vehicle: steriod suspending solution, higher = larger tumour) was 85 % of control. The T/C (endpoint: mean tumor weight, dose: 40.0 mg/kg/injection, schedule: Q01DX011 (sc), vehicle: steriod suspending solution, higher = larger tumour) was 94 % of control.
For `COc1cc2c(cc1NC(=O)N(CCCl)N=O)-c1ccccc1C2`, the T/C (endpoint: median survival time, dose: 118.0 mg/kg/injection, schedule: Q01DX001 (ip), vehicle: saline with Tween-80, higher = longer survival) was 93 % of control, the T/C (endpoint: median survival time, dose: 177.0 mg/kg/injection, schedule: Q01DX001 (ip), vehicle: saline with Tween-80, higher = longer survival) was 114 % of control and the T/C (endpoint: median survival time, dose: 266.0 mg/kg/injection, schedule: Q01DX001 (ip), vehicle: saline with Tween-80, higher = longer survival) was 106 % of control. For the same compound, the T/C (endpoint: median survival time, dose: 400.0 mg/kg/injection, schedule: Q01DX001 (ip), vehicle: saline with Tween-80, higher = longer survival) was 101 % of control and the T/C (endpoint: median survival time, dose: 600.0 mg/kg/injection, schedule: Q01DX001 (ip), vehicle: saline with Tween-80, higher = longer survival) was 90 % of control.
For `O=[N+]([O-])c1cccc([N+](=O)[O-])c1Cl`, the T/C (endpoint: mean tumor weight, dose: 37.0 mg/kg/injection, schedule: Q01DX011 (ip), vehicle: other, higher = larger tumour) was 116 % of control and the T/C (endpoint: mean tumor weight, dose: 55.0 mg/kg/injection, schedule: Q01DX011 (ip), vehicle: other, higher = larger tumour) was 89 % of control.
`c1ccc(N/N=C2/CCN3CCCc4cccc2c43)cc1` was tested, and the T/C (endpoint: median survival time, dose: 12.5 mg/kg/injection, schedule: Q04DX003 (ip), vehicle: DMSO, higher = longer survival) was 105 % of control, the T/C (endpoint: median survival time, dose: 25.0 mg/kg/injection, schedule: Q04DX003 (ip), vehicle: DMSO, higher = longer survival) was 87 % of control and the T/C (endpoint: median survival time, dose: 50.0 mg/kg/injection, schedule: Q04DX003 (ip), vehicle: DMSO, higher = longer survival) was 109 % of control.
For `COC1=CC(=O)N(C(=O)C2CSC(C(CO)NC(=O)c3csc(/C=N/O)n3)=N2)C1` (centres undefined), the T/C (endpoint: median survival time, dose: 100.0 mg/kg/injection, schedule: Q01DX009 (ip), vehicle: Klucel (hydroxypropylcellulose) (HPC), higher = longer survival) was 92 % of control and the T/C (endpoint: median survival time, dose: 200.0 mg/kg/injection, schedule: Q01DX009 (ip), vehicle: Klucel (hydroxypropylcellulose) (HPC), higher = longer survival) was 92 % of control.
With `O=NN(CCCl)C(=O)N[C@H]1CCC[C@@H](C(=O)O)C1` the T/C (endpoint: median survival time, dose: 14.0 mg/kg/injection, schedule: Q01DX001 (ip), vehicle: Klucel (hydroxypropylcellulose) (HPC), higher = longer survival) was 88 % of control and the T/C (endpoint: median survival time, dose: 32.0 mg/kg/injection, schedule: Q01DX001 (ip), vehicle: Klucel (hydroxypropylcellulose) (HPC), higher = longer survival) was 93 % of control.
`CN(C)Cc1c[nH]c2ccccc12` was tested, and the T/C (endpoint: mean tumor weight, dose: 26.6 mg/kg/injection, schedule: Q01DX011 (ip), vehicle: carboxymethylcellulose (CMC), higher = larger tumour) was 94 % of control, the T/C (endpoint: mean tumor weight, dose: 40.0 mg/kg/injection, schedule: Q01DX011 (ip), vehicle: carboxymethylcellulose (CMC), higher = larger tumour) was 70 % of control and the T/C (endpoint: mean tumor weight, dose: 60.0 mg/kg/injection, schedule: Q01DX011 (ip), vehicle: carboxymethylcellulose (CMC), higher = larger tumour) was 62 % of control. For the same compound, the T/C (endpoint: mean tumor weight, dose: 90.0 mg/kg/injection, schedule: Q01DX011 (ip), vehicle: carboxymethylcellulose (CMC), higher = larger tumour) was 57 % of control.
For `CC(C)CC1NC(=O)C(NC(=O)c2ncccc2O)C(C)OC(=O)C(c2ccccc2)N(C)C(=O)C(C)NC(=O)C(C(C)C(C)C)N(C)C(=O)CN(C)C(=O)C2CC(O)CN2C1=O` (centres undefined) ({Picolinoyl(3-OH)}-TL[Hyp][Sar][X2]A[NMePhg]; ester 1-C; configuration not given here), the T/C (endpoint: mean tumor weight, dose: 5.3 mg/kg/injection, schedule: Q01DX011 (ip), vehicle: saline, higher = larger tumour) was 90 % of control, the T/C (endpoint: mean tumor weight, dose: 8.0 mg/kg/injection, schedule: Q01DX011 (ip), vehicle: saline, higher = larger tumour) was 86 % of control and the T/C (endpoint: mean tumor weight, dose: 12.0 mg/kg/injection, schedule: Q01DX011 (ip), vehicle: saline, higher = larger tumour) was 88 % of control. The T/C (endpoint: mean tumor weight, dose: 18.0 mg/kg/injection, schedule: Q01DX011 (ip), vehicle: saline, higher = larger tumour) was 122 % of control.
`NS(=O)(=O)c1ncnc2nc[nH]c12` was tested, and the T/C (endpoint: mean tumor weight, dose: 5.0 mg/kg/injection, schedule: Q01DX011 (ip), vehicle: methylcellulose (MC), higher = larger tumour) was 88 % of control and the T/C (endpoint: mean tumor weight, dose: 25.0 mg/kg/injection, schedule: Q01DX011 (ip), vehicle: methylcellulose (MC), higher = larger tumour) was 87 % of control.
With `CC(=O)OC(C)(C)/C=C/C(=O)[C@](C)(O)[C@H]1[C@H](O)C[C@@]2(C)[C@@H]3CC=C4[C@@H](C[C@H](O)C(=O)C4(C)C)[C@]3(C)C(=O)C[C@]12C` the T/C (endpoint: mean tumor weight, dose: 0.16 mg/kg/injection, schedule: Q01DX011 (ip), vehicle: saline, higher = larger tumour) was 69 % of control, the T/C (endpoint: mean tumor weight, dose: 0.25 mg/kg/injection, schedule: Q01DX011 (ip), vehicle: saline, higher = larger tumour) was 53 % of control and the T/C (endpoint: mean tumor weight, dose: 0.38 mg/kg/injection, schedule: Q01DX011 (ip), vehicle: saline, higher = larger tumour) was 83 % of control. For the same compound, the T/C (endpoint: mean tumor weight, dose: 0.4 mg/kg/injection, schedule: Q01DX011 (ip), vehicle: carboxymethylcellulose (CMC), higher = larger tumour) was 67 % of control, the T/C (endpoint: mean tumor weight, dose: 0.4 mg/kg/injection, schedule: Q01DX011 (ip), vehicle: saline, higher = larger tumour) was 48 % of control and the T/C (endpoint: mean tumor weight, dose: 0.8 mg/kg/injection, schedule: Q01DX011 (ip), vehicle: saline, higher = larger tumour) was 42 % of control.

— PubChem BioAssay AID270 (DTP/NCI, 2004)
